# Values joined by “and” are separate entries in the source; they are usually repeats but may differ in a detail not shown here. Identical values can stand only once. Like-named read-outs stand apart in the source and are kept apart here.
# Key:
# KAP^2D cells = assay: P-H3^S10 / α-tubulin staining, mitotic phases in KAP^2D cells; format: cell-based, mouse; settings: replicates, experiment and repetition
# Procedure: Immunofluorescence staining on cells and organoids was performed on glass coverslips or tissue culture chambers (Sarstedt). Organoids were plated in medium containing 10% Matrigel or Cultrex BME. The cultures were fixed with 4% paraformaldehyde and stained with specific antibodies and DAPI (Vector Labs). All used antibodies and dilutions are listed in the Nature Portfolio Reporting Summary. For analyzing DNA synthesis, the Molecular Probes Click-iT EdU Alexa Fluor 555 kit was used 24 h after EdU incorporation with DAPI counterstaining. SA-β-Gal staining of cells was performed in cell culture dishes (cells) or tissue culture chambers (organoids) after fixation with 0.5% glutaraldehyde as described above. Human cultures were incubated with X-Gal solution at pH 6.0 for ~4 h. […] Positive cells were quantified using ImageJ version 1.53a software. The analysis of mitosis was performed with an LSM800 Airyscan (Zeiss) microscope (ZEN version 3.0 software). An Airyscan autofilter processing was applied before image analysis.
# PDO15 = assay: cell viability in patient-derived CRC organoids PDO15; format: cell-based, human
# Procedure: (§1) For in vitro treatment studies, organoids were mechanically dissociated and digested using TrypLE supplemented with 100 µg ml^−1 DNaseI and 10.5 µM Y-27632 dihydrochloride (Invitrogen) at 37 °C. A total of 1,000–2,000 single cells were plated per well in white 96-well plates (Greiner) in culture medium containing 10% GFR Matrigel or Cultrex BME. The treatment with doxycycline (5 µg ml^−1), pharmacological inhibitors or corresponding volumes of DMSO was started 24 h after plating. Doxycycline was obtained from Sigma-Aldrich. […] Cell viability was measured by means of CellTiter-Glo 3D or CellTiter-Glo 2.0 reagent (Promega) according to the manufacturers’ instructions and the Infinite M Plex reader (Tecan, i-control version 3.9.1 software). Results were normalized to vehicle (DMSO) or to shNC. For cell-doubling assays, the cell number was quantified at the corresponding time points using Guava EasyCyte flow cytometer (Luminex, CytoSoft v5.2 software).
# KAP liver metastasis = assay: survival of wild-type mice with KAP liver metastasis; format: in vivo, mouse; settings: single animals; 1 = event, 0 = censored; Fig. 6e
# Procedure: Subcutaneous injection, splenic seeding or cecum injection of organoids was performed in 8–10-week-old C57BL/6 N/Crl, Rag2^−/− (B6.Cg-Rag2^tm1.1Cgn/J), or CB17 Scid beige (CB17.Cg-Prkdc^scidLyst^bg-J/Crl) mice, obtained from Charles River. The organoids were dissociated into single cells, washed with PBS and injected in a 1:1 mixture of PBS and Matrigel. For murine organoids, 1 × 10^5 cells were injected into the left and right flanks or the spleen capsule and 2 × 10^6 cells were injected into the cecum wall. For human organoids, 4 × 10^5 cells were injected into the flanks of CB17 Scid beige mice. For splenic seeding and cecum injection, mice were anaesthetized using ketamine (100 mg kg^−1, intraperitoneally) and xylazin (10 mg/kg, intraperitoneally) in NaCl and a small laparotomy below the thorax was performed.
# No mice were excluded during treatment studies.
# PDO7 = assay: cell viability in patient-derived CRC organoids PDO7; format: cell-based, human
# Procedure: as §1
# HT-29 = assay: cell viability in human CRC cell line HT-29; format: cell-based; settings: ED Fig. 9h, replicates; for viability at 0.0137 µM: HT-29, read-out: HT-29 Cell viability (%), 0.0137 µM; for viability at 0.0412 µM: HT-29, read-out: HT-29 Cell viability (%), 0.0412 µM; for viability at 0.1235 µM: HT-29, read-out: HT-29 Cell viability (%), 0.1235 µM; for viability at 0.3704 µM: HT-29, read-out: HT-29 Cell viability (%), 0.3704 µM; for viability at 1.1111 µM: HT-29, read-out: HT-29 Cell viability (%), 1.1111 µM; for viability at 3.3333 µM: HT-29, read-out: HT-29 Cell viability (%), 3.3333 µM
# Procedure: To generate KAP^2D cells, KAP organoids were isolated from Matrigel, fragmented by mechanical dissociation and plated without any extracellular matrix on common cell culture dishes. Phoenix-Eco packaging cells (CRL-3214), HCT-15 (CCL-225), HCT 116 (CCL-247), COLO 205 (CCL-222), LS 174T (CL-188), RKO (CRL-2577) and HT-29 (HTB-38) were obtained from the American Type Culture Collection. The cells were cultured at 37 °C and 7% CO2 with RPMI (KAP^2D cells) or DMEM (other cell lines), supplemented with 10% FBS and penicillin–streptomycin. KAP^2D cells were authenticated using PCR (Kras locus and Trp53 locus). Phoenix-Eco packaging cells and HCT-15, HCT 116, COLO 205, LS 174T, RKO and HT-29 cells were authenticated by the provider using short tandem repeat profiling. No commonly misidentified cell lines were used. Mycoplasma contamination was excluded by a PCR-based analysis.
# as §1
structure (smiles),measurement,setting,value
"O=C1c2ccc(Nc3ccc(F)cc3F)cc2CCc2ccc(OC[C@H](O)CO)cc21 [SKL, skepinone-L, reference compound]","Anaphase, % (of fully P-H3S10+ cells)",KAP^2D cells; Fig. 4f,10.84% and 8.57% and 15.15% and 12.31% and 9.21% and 11.59%
same,"Metaphase, % (of fully P-H3S10+ cells)",KAP^2D cells; Fig. 4f,25.30% and 20.00% and 30.30% and 29.23% and 25.00% and 27.54%
same,"Multipolar mitosis, % (of fully P-H3S10+ cells)",KAP^2D cells; Fig. 4f,3.61% and 2.86% and 6.06% and 3.08% and 3.95% and 8.70%
same,"Telophase, % (of fully P-H3S10+ cells)",KAP^2D cells; Fig. 4f,8.43% and 9.52% and 12.12% and 10.77% and 13.16% and 15.94%
same,"P-H3S10+ cells, fully positive",KAP^2D cells; Fig. 4d,4.75% and 6.25% and 2.15% and 4.12% and 5.03% and 3.69%
same,"P-H3S10+ cells, partially positive",KAP^2D cells; Fig. 4d,6.47% and 7.85% and 5.54% and 6.84% and 8.15%
same,viability at 0.5 µM,"PDO15; Homo sapiens, 96 h, read-out: Cell viability (%), PDO15, 0.5 µM, 4 d",98%
same,viability at 1 µM,"PDO15; Homo sapiens, 96 h, read-out: Cell viability (%), PDO15, 1 µM, 4 days",106%
same,Cell viability (%),"PDO15; PDO15, 0.5 µM, 4 d, 0.5 µM",99.16% and 105.27%
same,Cell viability (%),"PDO15; PDO15, 1 µM, 4 days, 1 µM",107.85% and 101.84%
same,Survival,KAP liver metastasis,15 d of treatment and 16 d of treatment and 18 d of treatment and 26 d of treatment and 28 d of treatment and 11 d of treatment
same,viability at 0.5 µM,"PDO7; Homo sapiens, 96 h, read-out: Cell viability (%), PDO7, 0.5 µM, 4 d",82.8%
same,viability at 1 µM,"PDO7; Homo sapiens, 96 h, read-out: Cell viability (%), PDO7, 1 µM, 4 days",96.8%
same,Cell viability (%),"PDO7; PDO7, 0.5 µM, 4 d, 0.5 µM",101.04% and 90.15%
same,Cell viability (%),"PDO7; PDO7, 1 µM, 4 days, 1 µM",99.67% and 101.17%
same,HT-29 Cell viability (%),"HT-29; 0.0137 µM, Repetition",103.68% and 103.86%
same,HT-29 Cell viability (%),"HT-29; 0.0137 µM, first experiment",94.50% and 93.43%
same,HT-29 Cell viability (%),"HT-29; 0.0412 µM, Repetition",99.67% and 99.85%
same,HT-29 Cell viability (%),"HT-29; 0.0412 µM, first experiment",92.23% and 89.57%
same,HT-29 Cell viability (%),"HT-29; 0.1235 µM, Repetition",103.93% and 105.17%
same,HT-29 Cell viability (%),"HT-29; 0.1235 µM, first experiment",89.62% and 88.59%
same,HT-29 Cell viability (%),"HT-29; 0.3704 µM, Repetition",102.88% and 105.26%
same,HT-29 Cell viability (%),"HT-29; 0.3704 µM, first experiment",92.54% and 90.50%
same,HT-29 Cell viability (%),"HT-29; 1.1111 µM, Repetition",104.46% and 106.93%
same,HT-29 Cell viability (%),"HT-29; 1.1111 µM, first experiment",97.34% and 97.79%
same,HT-29 Cell viability (%),"HT-29; 3.3333 µM, Repetition",100.17% and 95.98%
same,HT-29 Cell viability (%),"HT-29; 3.3333 µM, first experiment",98.14% and 94.12%
same,HT-29 Cell viability (%),"HT-29; 10.0000 µM, Repetition",26.97% and 25.38%
same,HT-29 Cell viability (%),"HT-29; 10.0000 µM, first experiment",26.95% and 26.30%
same,viability at 0.0137 µM,"HT-29; Homo sapiens, Repetition",95.8%
same,viability at 0.0137 µM,"HT-29; Homo sapiens, first experiment",95.5%
same,viability at 0.0412 µM,"HT-29; Homo sapiens, Repetition",92.3%
same,viability at 0.0412 µM,"HT-29; Homo sapiens, first experiment",93.7%
same,viability at 0.1235 µM,"HT-29; Homo sapiens, Repetition",91.3%
same,viability at 0.1235 µM,"HT-29; Homo sapiens, first experiment",91.8%
same,viability at 0.3704 µM,"HT-29; Homo sapiens, Repetition",97.9%
same,viability at 0.3704 µM,"HT-29; Homo sapiens, first experiment",92.5%
same,viability at 1.1111 µM,"HT-29; Homo sapiens, Repetition",99.2%
same,viability at 1.1111 µM,"HT-29; Homo sapiens, first experiment",99.6%
same,viability at 3.3333 µM,"HT-29; Homo sapiens, Repetition",93.3%
same,viability at 3.3333 µM,"HT-29; Homo sapiens, first experiment",95.6%
same,viability at 10 µM,"HT-29; Homo sapiens, HT-29, read-out: HT-29 Cell viability (%), 10.0000 µM, Repetition",28.2%
